Legend:
effector CD4 T cells = assay: CFSE proliferation assay of mouse effector CD4 T cells; assay type: cell-based; details: effector CD4 T cells stimulated with anti-CD3/28 and drug(s), FIG. 12B
Method: Proliferation and cell division assays. Cells cultured in 96-well U-bottom plate wells were pulsed with 1 μCi of methyl-[^3H]thymidine (Amersham Biosciences) for 6 h during the last 72 h of stimulation and harvested onto filters (Wallac). Filters were wetted with Betaplate Scintillation fluid (PerkinElmer) and counts per minute read on a 1205 Betaplate Liquid Scintillation Counter (Wallac). For CFSE experiments, cells were labeled with 1 μM CFDA-SE (Sigma-Aldrich) in serum free RPMI 1640 medium for 10 min and washed twice before culturing. CFSE-labeled cells were assayed after 72 h of culture.
GRAIL is expressed during quiescence, lost upon activation. Naïve CD4 T cells were isolated from mouse and stimulated with anti-CD3 and anti-CD28 antibodies in vitro for the indicated number of hours (FIG. 10). Protein was collected and run by Western blot probing for GRAIL and β-actin. Effector CD4 T cells were made by first isolating from naïve mice, then stimulating with anti-CD3/28 for 3 days, split off and rested for 2 more days, then washed and put in fresh media for 2 additional days. Live CD4 T cells were then collected, shown to be at rest, and then activated in the same manner as described above. Protein samples were isolated and probed with anti-GRAII antibody as described in Example 1.
Shown in FIG. 12A, naïve CD4 T cells were labeled with CFSE, a dye that dilutes out with successive cell divisions. The naïve CD4 T cells were stimulated with anti-CD3/28 and the indicated drug(s) and CFSE profiles assessed after 3 days. […] A similar experiment was performed with effector CD4 T cells, prepared as described above.

mouse naive CD4 T cells = assay: CFSE cell division assay of mouse naive CD4 T cells; assay type: cell-based; details: anti-CD3/28 stimulation, CFSE profiles after 3 days
Description: Isolation and stimulation of mouse CD4 T cells. Spleen and lymph nodes were harvested from naive mice and homogenized through a strainer. RBC were lysed from the suspension using red blood cell lysing buffer (Sigma-Aldrich). Lymphocytes were isolated by density centrifugation using Lympholyte-M (Cedarlane Laboratories). CD4+ T cells were sorted via negative selection using an AutoMACS sorter (Miltenyi Biotec). BALB/c CD4+ T cells (5×103) were stimulated in 96-well U-bottom plates with equal numbers of polystyrene latex beads (Interfacial Dynamics) coated with 1.0 μg/ml anti-CD3 (145-2C11; eBioscience) and 0.5 μg/ml anti-CD28 (37.51; eBioscience). […] Anti-IL-2 Ab (JES6-1A12; eBioscience) was used at a concentration of 10 μg/ml. Cells were cultured in RPMI 1640 medium (Life Technologies) supplemented with 10% heat-inactivated FCS (Mediatech), 100 nM sodium pyruvate (Life Technologies), 2 mM L-glutamine (Life Technologies), 100 nM nonessential amino acids (Life Technologies), 100 U/ml penicillin/streptomycin (Life Technologies), and 5 nM 2-ME (Sigma-Aldrich). […]

GRAIL = GRAIL western blot of effector CD4 T cells; assay type: cell-based, mouse; details: effector CD4 T cells stimulated with anti-CD3/28, western blot, FIG. 12C
Method: Immunoblots. Whole-cell lysates were made using lysis buffer consisting of 0.5% Nonidet P-40, 100 mM sodium chloride, 0.5 mM EDTA, 20 mM Tris (pH 7.6-8.0), with protease inhibitor mixture (Pierce) and phosphatase inhibitor mixture (Pierce). Protein samples were loaded on 4-15% Tris-HCl gels (Bio-Rad) and separated by SDS-PAGE. Protein was transferred from gel to Immobolin-P polyvinylidene difluoride membrane (Millipore) using Trans-Blot SD Semidry Transfer Apparatus (Bio-Rad) following the manufacturer's instructions. StartingBlock (Tris-buffered saline with 0.05% Tween 20) (Pierce) was used to block membranes and was also used during primary and secondary Ab staining. Secondary Abs were all HRP conjugated (Zymed Laboratories). ECL Plus Western Blotting Reagents (GE Healthcare) were used for chemiluminescent detection of protein. Chemiluminescence signal was exposed onto Amersham Hyperfilm ECL (GE Healthcare). Membranes were stripped using Restore Western Blot Stripping Buffer (Pierce). Densitometry was performed using ImageJ software (National Institutes of Health). […]

Row | SMILES | proliferation of effector CD4 T cells (CFSE) (effector CD4 T cells) | cell division / proliferation by CFSE dilution (mouse naive CD4 T cells) | GRAIL retention in effector CD4 T cells (GRAIL)
1 | CC(=O)O[C@@H]1[C@@H](OC(C)=O)[C@@H](O)[C@H](Oc2c(-c3ccc(O)cc3)oc3cc(O)cc(O)c3c2=O)O[C@H]1C [SL0101] | does not work alone | – | –
2 | N#CC(=C(/N)Sc1ccccc1N)/C(C#N)=C(\N)Sc1ccccc1N [U0126] | does not inhibit proliferation | inhibits proliferation | does not lead to GRAIL retention
3 | O=C(NOCC(O)CO)c1ccc(F)c(F)c1Nc1ccc(I)cc1F (centres unmarked) [PD0325901, N-(2,3-dihydroxypropoxy)-3,4-difluoro-2-(2-fluoro-4-iodophenylamino)benzamide] | does not work alone | – | –
